The values that follow come from patent publication US9968610B2, “Pyrrolopyrimidine derivatives as NR2B NMDA receptor antagonists” (Rugen Holdings (Cayman) Limited, priority 2014, dated 2018).

The experiment deals with Rats. The experiment in a line: Electroconvulsive threshold (ECT) test. Conditions: p.o. 60 minutes before ECS, theophylline 128 mg/kg, diazepam 16 mg/kg. Type of experiment: in vivo, rat.

In the case of `CN1C(=O)CN=C(c2ccccc2)c2cc(Cl)ccc21` [diazepam], the “pro- or anticonvulsant activity (electroconvulsive threshold)” value was “expected pro- and anticonvulsant activities”. The result for `Cn1c(=O)c2[nH]cnc2n(C)c1=O` [theophylline, Theophylline] reads “expected pro- and anticonvulsant activities”.
